PMC12606616, “Synthesis, Characterization, and In Vitro and In Silico Studies of New Triazole Derivatives as Aromatase Inhibitors” (Medicinal Chemistry (Shariqah (United Arab Emirates), 2024)

Assays:
[1] = tested on: NIH3T3 (normal fibroblast cell); experiment: MTT cytotoxicity assay, NIH3T3 healthy cell line; assay type: cell-based; conditions: Mus musculus, 24-hour MTT, read-out: IC50 against NIH3T3
Protocol: (§1) Cytotoxicity studies were carried out using the MTT method, based on the principle of forming purple formazan salt. The MTT procedure was performed using a CO2 incubator during a 24-hour incubation period, as described in our previous publications. The results were detected with a microplate reader.
(§2) For activity studies, the 24-hour MTT procedure was applied. A549 (Lung cancer cell) (ATCC-CRM-CCL-185), MCF-7 (breast cancer cell) (ATCC-HTB-22), and NIH3T3 (normal fibroblast cell) (ATCC-CRL-1658) were used. Looking at the activity results, compound 4d is promising. […] The value shown against the MCF-7 cell line is especially important. Therefore, compound 4d was subjected to the aromatase enzyme inhibition test in vitro. When the structure of compound 4d was examined, unlike other compounds, it carried a nitro substitution in the fourth position of the phenyl ring.

Aromatase (CYP19A) = target: T1, Aromatase (CYP19A) (Homo sapiens, UniProt P11511); experiment: Aromatase (CYP19A) inhibitor screening kit (fluorometric); assay type: biochemical; conditions: read-out: IC50 aromatase enzyme inhibition
T1 construct: purchased BioVision
T1 sequence (P11511 1-503): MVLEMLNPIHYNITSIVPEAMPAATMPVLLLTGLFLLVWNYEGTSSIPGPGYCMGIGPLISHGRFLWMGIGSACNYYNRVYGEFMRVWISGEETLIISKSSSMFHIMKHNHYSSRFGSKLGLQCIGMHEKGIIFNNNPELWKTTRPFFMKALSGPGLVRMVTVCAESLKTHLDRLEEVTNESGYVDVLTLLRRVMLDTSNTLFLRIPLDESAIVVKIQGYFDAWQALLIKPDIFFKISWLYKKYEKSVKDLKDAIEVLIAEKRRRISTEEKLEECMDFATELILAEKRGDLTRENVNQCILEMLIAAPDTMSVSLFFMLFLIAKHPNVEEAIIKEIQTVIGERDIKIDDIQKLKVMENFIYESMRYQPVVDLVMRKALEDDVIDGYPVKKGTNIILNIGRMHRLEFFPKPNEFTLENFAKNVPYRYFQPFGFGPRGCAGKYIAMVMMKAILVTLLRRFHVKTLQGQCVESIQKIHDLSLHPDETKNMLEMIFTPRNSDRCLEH
Protocol: In the experiment performed according to the kit procedure, IC50 values of the compound were calculated from the results obtained with the help of a microplate reader (BioVision, Aromatase (CYP19A) Inhibitor Screening Kit (Fluorometric)).

A549 (Lung cancer cell) = experiment: MTT cytotoxicity assay, A549; assay type: cell-based; conditions: Homo sapiens; 24-hour MTT, A549 cell line; read-out: IC50 against A549
Protocol: as §1, §2

[2] = tested on: MCF-7 (breast cancer cell); experiment: MTT cytotoxicity assay, MCF-7; assay type: cell-based; conditions: Homo sapiens, MCF7; 24-hour MTT, MCF-7 cell line; read-out: IC50 against MCF-7
Protocol: as §1, §2

DNA synthesis = experiment: BrdU analysis (DNA synthesis inhibition); assay type: cell-based
Protocol: Three different incubation periods were selected for the experiment, which was carried out according to the kit procedure. (BioVision, BrdU Cell Proliferation Assay Kit (Fluorometric)). Test results performed at 24-hour, 48-hour, and 72-hour periods were based on fluorimetric measurement of the color change caused by the addition of the stop solution. It enables us to find out where the anticancer effect of anticancer compounds originates from. In other words, the following question persists: by affecting which phase in the cell cycle is DNA synthesis inhibited? BrdU analysis is important to find the answer to this question.
With the Brdu studies, the potential of compound 4d to inhibit DNA synthesis was examined in 24-, 48- and 72-hour periods. […] Since DNA synthesis occurs in the […] of the cell cycle, it would be a correct approach to say that the compounds affect the G2 phase.

Row | IC50 (Aromatase (CYP19A)) | Compound | IC50 [1] | IC50 (A549 (Lung cancer cell)) | IC50 [2] | DNA synthesis inhibition (DNA synthesis; 24-hour incubation, 2xIC50 dose) | DNA synthesis inhibition (DNA synthesis; 24-hour incubation, IC50/2 dose) | DNA synthesis inhibition (DNA synthesis; 24-hour incubation, IC50 dose) | DNA synthesis inhibition (DNA synthesis; 48-hour incubation, 2xIC50 dose) | DNA synthesis inhibition (DNA synthesis; 48-hour incubation, IC50/2 dose) | DNA synthesis inhibition (DNA synthesis; 48-hour incubation, IC50 dose) | DNA synthesis inhibition (DNA synthesis; 72-hour incubation, 2xIC50 dose) | DNA synthesis inhibition (DNA synthesis; 72-hour incubation, IC50/2 dose) | DNA synthesis inhibition (DNA synthesis; 72-hour incubation, IC50 dose)
1 | 0.097 µM | CCn1c(SCC(=O)c2ccc([N+](=O)[O-])cc2)nnc1-c1nc[nH]c1C [Compound 4d, 2-((4-ethyl-5-(5-methyl-1H-imidazol-4-yl)-4H-1,2,4-triazol-3-yl)thio)-1-(4-nitrophenyl) ethan-1-one] | 13.2 µM | 17.2 µM | 6.73 µM | 63.3% | 16.1% | 28.1% | 79.0% | 40.4% | 77.5% | 92.4% | 77.8% | 80.6%
2 |  | CCn1c(SCC(=O)c2ccc(C)cc2C)nnc1-c1[nH]cnc1C [Compound 4h] | 27.2 µM | 17.2 µM | > 100 µM |  |  |  |  |  |  |  |  | 
3 |  | CCn1c(SCC(=O)c2ccc(F)cc2F)nnc1-c1[nH]cnc1C [Compound 4i] | 27.2 µM | 86.2 µM | 64.4 µM |  |  |  |  |  |  |  |  | 
4 |  | CCn1c(SCC(=O)c2ccc(Cl)cc2Cl)nnc1-c1[nH]cnc1C [Compound 4j] | 18.4 µM | 66.1 µM | 28.9 µM |  |  |  |  |  |  |  |  | 
